Test results published in ChEMBL document CHEMBL1201862, “PubChem BioAssay data set” (2004).
Calls of active or inactive are those of the source.

Legend:
[1] = biological target: DNA dC->dU-editing enzyme APOBEC-3G (Homo sapiens, UniProt Q9HC16); assay: Dose Response confirmation of small molecule APOBEC3G DNA Deaminase Inhibitors via a fluorescence-based single-stranded DNA deaminase assay. [Related pubchem assays (depositor defined):AID493012, AID493028]; assay type: functional
[2] = biological target: Eukaryotic translation initiation factor 4E (Mus musculus, UniProt P63073); assay: eIF4E–eIF4G protein interaction inhibitors, dose response, biochemical, TR-FRET (AID 855); assay type: functional;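 also: potency for disrupting eIF4E binding to eIF4GI seen as loss of FRET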
Chain of Eukaryotic translation initiation factor 4E (P63073 whole entry): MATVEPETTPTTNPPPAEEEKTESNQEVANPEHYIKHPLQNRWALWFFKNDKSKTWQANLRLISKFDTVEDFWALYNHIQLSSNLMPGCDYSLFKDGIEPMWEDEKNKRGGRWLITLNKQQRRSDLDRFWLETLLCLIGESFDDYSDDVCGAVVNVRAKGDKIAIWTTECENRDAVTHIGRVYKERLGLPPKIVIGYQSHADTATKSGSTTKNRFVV

[3] = biological target: T1, Short transient receptor potential channel 4 (Mus musculus, UniProt Q9QUQ5); assay: mouse TRPC4 channel inhibitors, dose response, cell-based, HEK293 TRPC4/mu-opioid, Fluo-4 calcium (AID 434942); assay type: functional;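 also: potency of inhibitors blocking the TRPC4 calcium response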
T1 sequence (Q9QUQ5 whole entry): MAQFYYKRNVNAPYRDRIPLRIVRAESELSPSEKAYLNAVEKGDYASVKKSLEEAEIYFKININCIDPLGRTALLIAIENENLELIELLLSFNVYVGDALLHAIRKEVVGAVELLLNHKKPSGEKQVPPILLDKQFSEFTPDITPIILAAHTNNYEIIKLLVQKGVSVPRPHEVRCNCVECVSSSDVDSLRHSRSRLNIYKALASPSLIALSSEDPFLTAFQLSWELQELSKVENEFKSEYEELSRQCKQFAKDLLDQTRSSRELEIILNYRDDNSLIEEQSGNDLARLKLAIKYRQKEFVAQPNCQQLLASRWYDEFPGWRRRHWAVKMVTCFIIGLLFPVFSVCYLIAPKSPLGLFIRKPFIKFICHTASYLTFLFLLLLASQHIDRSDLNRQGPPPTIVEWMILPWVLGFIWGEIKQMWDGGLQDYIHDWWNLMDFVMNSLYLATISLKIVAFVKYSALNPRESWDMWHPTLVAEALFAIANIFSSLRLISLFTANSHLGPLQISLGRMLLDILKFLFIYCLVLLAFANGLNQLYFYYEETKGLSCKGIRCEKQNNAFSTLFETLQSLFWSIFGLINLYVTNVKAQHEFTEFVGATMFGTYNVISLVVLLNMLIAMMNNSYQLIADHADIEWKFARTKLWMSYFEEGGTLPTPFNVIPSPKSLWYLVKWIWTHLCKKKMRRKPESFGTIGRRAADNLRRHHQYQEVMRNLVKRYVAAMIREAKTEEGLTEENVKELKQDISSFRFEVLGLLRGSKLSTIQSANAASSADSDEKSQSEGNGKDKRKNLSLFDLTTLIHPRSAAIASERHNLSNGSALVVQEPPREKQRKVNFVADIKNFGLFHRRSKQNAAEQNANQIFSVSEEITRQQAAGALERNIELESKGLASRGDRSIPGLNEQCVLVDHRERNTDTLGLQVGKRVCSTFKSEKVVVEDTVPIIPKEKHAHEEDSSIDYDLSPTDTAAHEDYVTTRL

Aminopeptidase N = biological target: T2, Aminopeptidase N (Plasmodium falciparum FcB1/Columbia, UniProt O96935); assay: P. falciparum M1AAP inhibitors, biochemical, fluorogenic H-Leu-NHMec substrate, 1536-well (AID 1445); design: species or system Plasmodium falciparum 3D7, 3D7
T2 sequence (O96935 whole entry): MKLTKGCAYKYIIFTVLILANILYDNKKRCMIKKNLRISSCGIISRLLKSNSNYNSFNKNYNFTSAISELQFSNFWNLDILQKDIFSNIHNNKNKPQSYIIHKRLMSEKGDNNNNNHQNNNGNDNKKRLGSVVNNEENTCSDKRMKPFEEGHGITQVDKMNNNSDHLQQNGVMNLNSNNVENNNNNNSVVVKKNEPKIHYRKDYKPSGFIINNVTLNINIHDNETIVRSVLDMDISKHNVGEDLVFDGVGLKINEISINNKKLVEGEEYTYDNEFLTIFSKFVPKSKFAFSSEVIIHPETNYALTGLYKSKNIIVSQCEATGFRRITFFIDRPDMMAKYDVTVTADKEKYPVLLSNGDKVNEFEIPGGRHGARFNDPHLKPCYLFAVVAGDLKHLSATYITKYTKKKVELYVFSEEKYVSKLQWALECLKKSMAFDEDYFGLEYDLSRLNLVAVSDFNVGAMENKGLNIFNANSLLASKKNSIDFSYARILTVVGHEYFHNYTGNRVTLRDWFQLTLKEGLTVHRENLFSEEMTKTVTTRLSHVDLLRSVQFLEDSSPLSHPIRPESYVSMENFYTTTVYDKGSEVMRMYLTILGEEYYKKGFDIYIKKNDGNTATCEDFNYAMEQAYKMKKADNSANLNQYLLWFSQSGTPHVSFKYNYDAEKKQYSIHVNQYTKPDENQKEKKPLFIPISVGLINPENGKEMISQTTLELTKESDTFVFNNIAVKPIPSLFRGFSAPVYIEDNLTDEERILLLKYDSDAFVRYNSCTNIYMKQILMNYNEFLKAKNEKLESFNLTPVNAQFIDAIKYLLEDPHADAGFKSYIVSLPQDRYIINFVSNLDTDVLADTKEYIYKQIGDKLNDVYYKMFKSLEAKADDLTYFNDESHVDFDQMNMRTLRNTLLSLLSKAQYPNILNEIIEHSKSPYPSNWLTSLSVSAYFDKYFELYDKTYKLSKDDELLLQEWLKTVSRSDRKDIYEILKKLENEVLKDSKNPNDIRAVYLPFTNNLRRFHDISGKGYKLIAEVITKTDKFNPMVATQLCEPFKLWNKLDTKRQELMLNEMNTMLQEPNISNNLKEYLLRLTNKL

Nonstructural protein 1 = Nonstructural protein 1 (Influenza A virus, UniProt Q194T2); assay type: functional, Influenza A virus (A/California/07/2009(H1N1))
Chain of Nonstructural protein 1 (Q194T2 whole entry): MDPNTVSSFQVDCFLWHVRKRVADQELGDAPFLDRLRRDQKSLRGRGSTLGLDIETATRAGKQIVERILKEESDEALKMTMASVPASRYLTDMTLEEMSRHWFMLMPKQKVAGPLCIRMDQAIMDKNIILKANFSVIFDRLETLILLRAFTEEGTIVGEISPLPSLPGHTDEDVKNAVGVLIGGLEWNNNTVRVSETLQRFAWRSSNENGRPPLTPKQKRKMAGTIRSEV

[4] = inhibitors of intracellular T. cruzi replication, confirmation, NIH3T3 host cells, beta-gal luminescence (AID 2044); assay type: functional, cell-based;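 also: intracellular parasites grown in NIH/3T3 mouse fibroblasts as host cells; luminescent beta-galactosidase reporter signal from transgenic T. cruzi replicating inside host cells; inhibitors lower the luminescence signal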
[5] = cytotoxicity toward NIH3T3 fibroblasts, dose response, counter-screen, cell-based, ATP luminescence, mouse fibroblasts (AID 2010); assay type: functional;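 also: cells exposed to compound for about 90 hours before reading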
[6] = biological target: T3, Replicative DNA helicase DnaB (Mycobacterium tuberculosis, UniProt P9WMR3); assay: DnaB intein splicing inhibitors, dose response, biochemical, cell-free fluorescence (AID 449749); assay type: functional
T3 sequence (P9WMR3 whole entry): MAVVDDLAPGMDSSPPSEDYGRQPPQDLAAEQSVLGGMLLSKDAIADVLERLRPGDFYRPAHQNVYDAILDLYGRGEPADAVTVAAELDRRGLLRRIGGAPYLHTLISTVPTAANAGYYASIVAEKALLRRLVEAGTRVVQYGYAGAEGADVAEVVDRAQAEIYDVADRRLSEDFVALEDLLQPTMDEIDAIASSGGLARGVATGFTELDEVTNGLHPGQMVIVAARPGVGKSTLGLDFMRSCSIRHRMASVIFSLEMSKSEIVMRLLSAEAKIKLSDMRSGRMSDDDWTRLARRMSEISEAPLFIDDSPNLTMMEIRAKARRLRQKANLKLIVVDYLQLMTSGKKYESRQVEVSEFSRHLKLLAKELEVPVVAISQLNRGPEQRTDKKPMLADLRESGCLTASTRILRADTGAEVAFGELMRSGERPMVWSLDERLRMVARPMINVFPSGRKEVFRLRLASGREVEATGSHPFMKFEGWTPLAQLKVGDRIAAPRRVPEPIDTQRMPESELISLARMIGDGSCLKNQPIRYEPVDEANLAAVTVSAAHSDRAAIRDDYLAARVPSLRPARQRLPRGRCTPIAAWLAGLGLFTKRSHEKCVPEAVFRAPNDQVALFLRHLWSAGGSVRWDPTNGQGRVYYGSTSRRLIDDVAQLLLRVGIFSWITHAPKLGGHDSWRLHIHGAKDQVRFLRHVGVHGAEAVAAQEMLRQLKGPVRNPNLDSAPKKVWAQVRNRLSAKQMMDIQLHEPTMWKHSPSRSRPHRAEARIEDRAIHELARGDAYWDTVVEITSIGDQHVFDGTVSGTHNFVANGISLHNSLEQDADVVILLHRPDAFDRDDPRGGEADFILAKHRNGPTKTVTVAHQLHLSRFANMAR

[7] = biological target: T4, Ubiquitin-conjugating enzyme E2 N (Homo sapiens, UniProt P61088); assay type: functional;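 also: Dose-response confirmation in a TR-FRET assay detecting UBC13-driven polyubiquitin chain formation, inhibition measured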
T4 sequence (P61088 whole entry): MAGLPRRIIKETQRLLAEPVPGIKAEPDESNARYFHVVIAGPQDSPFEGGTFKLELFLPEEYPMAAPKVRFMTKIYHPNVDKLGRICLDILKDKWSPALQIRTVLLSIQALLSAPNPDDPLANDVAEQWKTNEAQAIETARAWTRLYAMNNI

Leucine aminopeptidase = biological target: T5, Leucine aminopeptidase (Plasmodium falciparum 3D7, UniProt Q8IL11); assay: P. falciparum M17LAP inhibitors, primary screen, biochemical, fluorogenic H-Leu-NHMec substrate, 1536-well (AID 1619); assay type: functional
T5 sequence (Q8IL11 whole entry): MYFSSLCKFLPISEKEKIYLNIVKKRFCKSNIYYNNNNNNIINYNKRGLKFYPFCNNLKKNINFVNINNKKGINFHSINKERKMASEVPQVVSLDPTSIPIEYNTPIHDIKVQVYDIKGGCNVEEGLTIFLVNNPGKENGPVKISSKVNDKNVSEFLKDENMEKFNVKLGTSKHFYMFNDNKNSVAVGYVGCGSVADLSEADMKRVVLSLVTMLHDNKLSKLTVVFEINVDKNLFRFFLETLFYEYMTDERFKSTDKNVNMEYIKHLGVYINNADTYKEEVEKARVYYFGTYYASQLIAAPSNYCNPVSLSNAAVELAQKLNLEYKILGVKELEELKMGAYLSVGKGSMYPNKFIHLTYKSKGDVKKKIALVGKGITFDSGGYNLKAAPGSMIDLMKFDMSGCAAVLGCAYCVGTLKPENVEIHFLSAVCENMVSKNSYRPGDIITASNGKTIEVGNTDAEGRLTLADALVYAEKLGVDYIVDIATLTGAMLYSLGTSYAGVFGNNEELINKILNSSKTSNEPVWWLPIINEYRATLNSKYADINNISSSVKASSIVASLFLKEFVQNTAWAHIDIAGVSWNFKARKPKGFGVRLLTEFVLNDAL

Protein RecA = biological target: T6, Protein RecA (Mycobacterium tuberculosis, UniProt P9WHJ3); assay: Fluorescence Cell-Free Homogeneous Dose Retest to Identify Inhibitors of RecA-Intein Splicing Activity. [Related pubchem assays (depositor defined):AID2097, AID2223, AID489010, AID492950]; assay type: functional
T6 sequence (P9WHJ3 whole entry): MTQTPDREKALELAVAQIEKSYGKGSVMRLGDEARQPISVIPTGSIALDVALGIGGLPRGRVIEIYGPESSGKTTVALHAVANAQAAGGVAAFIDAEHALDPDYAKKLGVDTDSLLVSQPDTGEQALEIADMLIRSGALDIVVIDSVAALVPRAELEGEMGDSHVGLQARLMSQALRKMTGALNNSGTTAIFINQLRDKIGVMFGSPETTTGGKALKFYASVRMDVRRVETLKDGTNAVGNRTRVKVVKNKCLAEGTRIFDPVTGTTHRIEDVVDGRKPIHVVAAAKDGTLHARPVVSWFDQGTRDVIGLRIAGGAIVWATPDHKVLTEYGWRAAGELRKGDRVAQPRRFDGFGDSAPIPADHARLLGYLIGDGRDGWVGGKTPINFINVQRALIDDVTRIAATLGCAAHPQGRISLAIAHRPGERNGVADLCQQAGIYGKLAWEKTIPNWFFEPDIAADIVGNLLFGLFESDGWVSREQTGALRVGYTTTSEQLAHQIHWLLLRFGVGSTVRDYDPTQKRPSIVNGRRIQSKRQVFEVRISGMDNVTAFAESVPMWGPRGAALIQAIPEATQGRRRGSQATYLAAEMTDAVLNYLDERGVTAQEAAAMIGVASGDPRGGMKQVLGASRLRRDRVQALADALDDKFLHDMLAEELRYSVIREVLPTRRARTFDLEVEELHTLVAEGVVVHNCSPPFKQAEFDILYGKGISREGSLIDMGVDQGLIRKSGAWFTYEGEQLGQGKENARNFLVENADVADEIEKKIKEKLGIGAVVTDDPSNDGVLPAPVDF

Large T antigen = Large T antigen (Simian virus 40, UniProt P03070); assay type: functional, Betapolyomavirus macacae;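 also: Confirmatory-stage PubChem screen for compounds that inhibit SV40 T antigen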
Chain of Large T antigen (P03070 whole entry): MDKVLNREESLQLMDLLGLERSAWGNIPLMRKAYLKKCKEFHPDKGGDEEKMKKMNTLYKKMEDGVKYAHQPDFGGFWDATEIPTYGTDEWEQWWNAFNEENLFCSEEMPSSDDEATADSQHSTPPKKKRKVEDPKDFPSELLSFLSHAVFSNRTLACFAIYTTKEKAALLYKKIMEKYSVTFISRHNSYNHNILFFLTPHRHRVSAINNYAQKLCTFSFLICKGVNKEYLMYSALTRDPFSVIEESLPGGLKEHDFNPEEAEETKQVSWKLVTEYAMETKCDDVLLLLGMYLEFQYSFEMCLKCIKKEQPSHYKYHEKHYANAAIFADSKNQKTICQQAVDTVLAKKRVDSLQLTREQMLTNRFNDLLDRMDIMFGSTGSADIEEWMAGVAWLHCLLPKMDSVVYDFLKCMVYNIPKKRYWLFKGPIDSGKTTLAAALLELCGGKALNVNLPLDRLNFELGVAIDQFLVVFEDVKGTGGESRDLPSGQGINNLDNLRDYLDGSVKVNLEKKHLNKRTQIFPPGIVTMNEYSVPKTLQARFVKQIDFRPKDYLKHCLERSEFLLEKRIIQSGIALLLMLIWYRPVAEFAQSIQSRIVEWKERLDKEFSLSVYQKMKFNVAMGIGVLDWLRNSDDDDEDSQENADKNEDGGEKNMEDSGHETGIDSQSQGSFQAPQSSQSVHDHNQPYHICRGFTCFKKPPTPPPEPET

cells [8] = assay type: functional, cell-based
cells [9] = assay type: functional, cell-based; remark: listed apart in the source

Chain of DNA dC->dU-editing enzyme APOBEC-3G (Q9HC16 whole entry): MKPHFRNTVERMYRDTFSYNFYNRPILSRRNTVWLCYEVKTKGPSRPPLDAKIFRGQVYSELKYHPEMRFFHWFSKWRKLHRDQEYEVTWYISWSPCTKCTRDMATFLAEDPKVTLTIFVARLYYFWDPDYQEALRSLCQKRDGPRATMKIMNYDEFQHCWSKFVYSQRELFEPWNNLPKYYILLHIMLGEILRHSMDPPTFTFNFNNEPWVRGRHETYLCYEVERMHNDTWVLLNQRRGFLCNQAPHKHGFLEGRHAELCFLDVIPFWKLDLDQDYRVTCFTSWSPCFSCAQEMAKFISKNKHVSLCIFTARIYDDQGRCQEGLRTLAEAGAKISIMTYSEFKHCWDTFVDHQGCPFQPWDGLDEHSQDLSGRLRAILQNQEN

SMILES: CCOc1ccc(Nc2nc3cc(S(=O)(=O)N(CC)CC)ccc3o2)cc1
- IC50 [1]: > 100 µM (inactive)

SMILES: COc1ccc(CC(=O)Nc2nnc(C(C)C)s2)cc1
- IC50 [2]: 50 µM (inactive)

SMILES: O=C(Nc1ccccc1Oc1cccnc1)C1CCCN(Cc2ccc(F)cc2)C1 (stereo unspecified)
- EC50 [3]: 3.35 µM (active)

SMILES: O=C(NN1C(=O)c2ccccc2NC12CCCCC2)c1ccccc1
- IC50 (Aminopeptidase N): 6.87 µM (active)

SMILES: Cc1nnc2sc(SCC(=O)Nc3ccc(Cl)cc3)nn2c1=O
- IC50 (Nonstructural protein 1): 9.75 µM (active)

SMILES: Cc1cc(C)n(CC(=O)N/N=C/c2cc(Br)cc([N+](=O)[O-])c2O)n1
- EC50 [4]: 0.678 µM (active)
- EC50 [5]: 15.9 µM (active)
- IC50 (Aminopeptidase N): 19.2 µM (active)

SMILES: CSc1n/c(=N/C(C)=O)ss1
- IC50 [1]: 25.8 µM (active)

SMILES: CCOc1cc(C2C(C#N)=C(N)Oc3[nH]nc(-c4ccccc4)c32)ccc1O (stereo unspecified)
- AC50 [6]: 1.81 µM (active)
- IC50 [7]: > 20 µM (inactive)
- IC50 (Leucine aminopeptidase): 77.1 µM (active)
- EC50 (Protein RecA): 0.689 µM (active)

SMILES: Oc1ccc(-c2[nH]ncc2-c2cccc3cccnc23)c(O)c1
- IC50 (Large T antigen): 25.7 µM (active)
- IC50 [2]: > 64 µM (inactive)

SMILES: Fc1ccc(C2CCCN2Cc2nc(Cc3ccccc3)no2)cc1 (stereo unspecified)
- IC50 [2]: 50 µM (inactive)

SMILES: COc1cc2cc(C(c3nnnn3C3CCCC3)N(C)C3CCCCC3)c(O)nc2cc1OC (stereo unspecified)
- IC50 [2]: > 64 µM (inactive)

SMILES: Cc1ccc(/C(=N/Nc2ncnc3ccccc23)C(=O)O)cc1
- EC50 (cells [8]): > 350 µM (not active)
- EC50 (cells [9]): > 350 µM (not active)
- IC50 (Nonstructural protein 1): 9.46 µM (active)

SMILES: O=C(Cc1ccccc1[N+](=O)[O-])OCc1cccc([N+](=O)[O-])c1
- EC50 [3]: 0.376 µM (active)
